Data reported in patent US10639298B2 (Biohaven Pharmaceutical Holding Company Ltd., priority 2015, dated 2020).

Key:
[1] = Rat pharmacokinetic studies of prodrug and released riluzole (IV or oral); format: in vivo, Sprague-Dawley rats
Experimental: Rat Pharmacokinetic Studies of the Compounds of the Disclosure:
Blood samples were collected at pre-determined time points including a 0 h time point and usually between 7 and 8 additional time points not exceeding a 24 h period.
Plasma samples were extracted and analyzed using the methods described in Plasma Sample Extraction and Analysis. All data are expressed as ng/mL of the free base. Samples that were below the limit of quantification (0.5 ng/mL) were not used in the calculation of averages.
Pharmacokinetic parameters were calculated from the time course of the plasmaconcentrations. Pharmacokinetic parameters were determined with Phoenix Winnonlin (v6.3) software using a non-compartmental model. The maximum plasma concentration (Cmax) and time to the maximum plasma concentration (Tmax) of the compound of the disclosure were observed from the data. The area under the concentration-time curve (AUC) of the compound of the disclosure was calculated using the trapezoidal formula with calculation to the last quantifiable data point, and to infinity if applicable. Plasma half-life (t½) was calculated from 0.693/slope of the terminal elimination phase. Mean residence time, MRT, was calculated by dividing the area under the moment curve (AUMC) by the AUC. Any samples below the limit of quantitation (0.5 ng/mL) were treated as zero for pharmacokinetic data analysis.
Plasma Sample Extraction and Analysis:
Analytical stock solutions (1.00 mg/mL of the free compound of the disclosure) were prepared in DMSO. Standards were prepared in diluted matrix containing 1 part 10% formic acid and 9 parts Sprague-Dawley rat plasma containing sodium heparin as the anticoagulant (pre-diluted with 1 part of 0.5M citric acid and 9 parts whole blood). Working solutions were prepared in 50:50 acetonitrile:water. Working solutions were then added to plasma to make calibration standards to final concentrations of 1000, 500, 100, 50, 10, 5, 1, and 0.5 ng/mL. Standards contained both the test article and riluzole. Standards were treated identically to the study samples.
Plasma samples were extracted via acetonitrile precipitation on a Tomtec Quadra 96-Model 320 liquid handling system in a 96-well plate format.

Melanoma C8161 cells = assay: Inhibition of human melanoma cell xenograft growth; format: in vivo, nude mice; details: P<0.01 (t test)
Experimental: Melanoma C8161 cells were inoculated s.c. into nude mice at […]. […] Mice were treated every day for 21 days, and tumor sizes were measured twice weekly with a Vernier caliper.

[2] = fasted male Sprague Dawley rats, IV, prodrug dose 2.8 mg/Kg
[3] = fasted male Sprague Dawley rats, PO 14.6 mg/kg

## CN(CC(=O)Nc1nc2ccc(OC(F)(F)F)cc2s1)C(=O)CNC(C)(C)C [Example 125, 2-(tert-butylamino)-N-methyl-N-(2-oxo-2-((6-(trifluoromethoxy)benzo[d]thiazol-2-yl)amino)ethyl)acetamide]
[1]; [2]
  Compound of the disclosure AUClast: 1526 ng·h/mL
  Compound of the disclosure Cl: 29.7 mL/min/kg
  Compound of the disclosure Vss: 3.57 L/kg
[1]; fasted male Sprague Dawley rats, IV, prodrug dose 2.8 mg/Kg, 2.8 mg/kg
  Compound of the disclosure t1/2: 1.92 h
[1]; [3]
  Prodrug AUClast (Mean): 2259 ng·h/mL
  Prodrug Cmax (Mean): 213 ng/mL
  Prodrug t1/2 (Mean): 3.8 h
  Prodrug tmax (Mean): 1.80 h
[1]; intravenous administration
  Half life on conversion to Riluzole: moderate to long half life
[1]; oral administration
  Half life on conversion to Riluzole: long half life
  Oral bioavailability: high oral bioavailability
[1]; rat, plasma, fasted male Sprague Dawley rats, IV, prodrug dose 2.8 mg/Kg, read-out: Compound of the disclosure AUClast
  AUC(0-t): 1600 ng·h/mL
[1]; rat, plasma, fasted male Sprague Dawley rats, IV, prodrug dose 2.8 mg/Kg, read-out: Compound of the disclosure Cl (converted)
  clearance: 27.8 mL/min/kg
[1]; rat, plasma, fasted male Sprague Dawley rats, IV, prodrug dose 2.8 mg/Kg, read-out: Compound of the disclosure Vss
  Vd: 3.51 L/kg
Melanoma C8161 cells; 4.9 mg/kg (threefold lower in molar terms) p.o. gavage every day for 21 days
  Tumor volume vs untreated or vehicle-treated controls: significant reduction in tumor volume
Melanoma C8161 cells; 14.6 mg/kg (equimolar to riluzole) p.o. gavage every day for 21 days
  Tumor volume vs untreated or vehicle-treated controls: significant reduction in tumor volume
